Columns and labels:
[1] = tested on: sebaceous-gland-structure A; assay: Observation of inside of sebaceous-gland-structure, lipid droplets of sebum in outermost layer / degree of progress of sebum production (Example 2); assay type: cell-based; details: test sample D, linoleic acid 1×10^−4 M plus test substance 1 μM, 24 hours (Experiment number 9); FIGS. 9 and 10
Method: Linoleic acid and linoleic acid receptor antagonist (manufactured by Abeam plc, trade name: GSK-3787) as test substances were added to the mixed medium obtained in Preparation Example 1 so that the concentration of linoleic acid was 1×10^−4 M and so that the concentration of the test substance was 1 μM, to obtain a test sample D.
One milliliter of the test sample A was added to each well of a 24-well plate. Next, the sebaceous-gland-structure A obtained in Preparation Example 6 was cultured in a suspended state in the test sample A in each well of the 24-well plate in the presence of 5% by volume carbon dioxide at 37° C. for 24 hours, to contact the sebaceous-gland-structure A with the test sample A (Experiment number 7). […]
Furthermore, the state of each cell of 40 cells in the outermost layer shown in each figure was evaluated by using the results shown in FIGS. 7 to 9 on the basis of the evaluation criterion described below. […]
Next, the degree of progress of sebum production in the sebaceous gland cell contained in the sebaceous-gland-structure A was evaluated by calculating the mean value of the points in the 40 cells in the outermost layer in FIGS. 7 to 9. […]

[2] = tested on: sebaceous-gland-structure A; assay: Degree of sebum production from three-dimensional image analysis of outermost layer (Example 4); assay type: cell-based; details: 24 hours
Method: Linoleic acid and phytic acid as test substances were added to the mixed medium obtained in Preparation Example 1 (test sample A) so that the concentration of linoleic acid was 1×10^−4M and so that the concentration of the test sample was 100 μM, to obtain a test sample E. One milliliter of the test sample A was added to each well of a 24-well plate. Text, the sebaceous-gland-structure A obtained in Preparation Example 6 was cultured in a suspended state in the test sample A contained in each well of the 24-well plate in the presence of 5% by volume carbon dioxide at 37° C. for 24 hours, to contact the sebaceous-gland-structure A with the test sample A (Experiment number 10). In addition, the sebaceous-gland-structure A was contacted with the test sample B (Experiment number 11) or the test sample E (Experiment number 12) in the same manner as in Experiment, number 10 except that in Experiment number 10, the test sample B obtained in Example 1(1) (Experiment number 11) or the test sample E obtained in Example 4(1) (Experiment number 12) was used in place of the test sample A. Each of observation samples of Experiment numbers 10 to 12 was obtained in the same manner as in Preparation Example 7 except that in Preparation Example 7, the cultured sebaceous-gland-structure A obtained in Example 4(2) (Experiment numbers 10 to 12) was used in place of the cultured sebaceous-gland-structure A obtained in Preparation Example 6. The appearance of the sebaceous-gland-structure A contained in the observation sample of each of Experiment numbers 10 to 12 obtained in Example 4(3) was observed under a confocal microscope by using image analysis software (manufactured b Bitplane AG, trade name: Imaris), thereby giving three-dimensional image of the sebaceous-gland-structure A. Next, information of the outermost layer of the sebaceous-gland-structure A was extracted from the data of the resulting three-dimensional image by using image analysis software (manufactured by Bitplane AG, trade name: Imaris). Thereafter, the whole volume of the cells present in the outermost layer was calculated from the extracted information, and thereafter the sebum droplets contained in the outermost layer were counted. Using the whole volume of the cells present in the outermost layer and the number of lipid droplets of the sebum the degree of sebum production was calculated according to Formula (I): [Degree of Sebum production]=[Number of lipid droplets of sebum]/[Whole volume of cells present in outermost layer] (I)

Structure (SMILES) | lipid droplets of sebum in the outermost layer of the sebaceous-gland-structure A [1] | sebum production-regulating action ([2]; phytic acid 100 μM in presence of linoleic acid 1×10^−4 M, conclusion from FIG. 11) | degree of sebum production (number of lipid droplets of sebum / whole volume of cells present in outermost layer) ([2]; test sample E, linoleic acid 1×10^−4 M plus phytic acid 100 μM, compared with test sample containing linoleic acid, FIG. 11)
O=C(NCCS(=O)(=O)c1ccc(C(F)(F)F)cn1)c1ccc(Cl)cc1 [linoleic acid receptor antagonist, GSK-3787] | no lipid droplet of sebum was found | – | –
O=P(O)(O)O[C@H]1[C@H](OP(=O)(O)O)[C@@H](OP(=O)(O)O)[C@H](OP(=O)(O)O)[C@@H](OP(=O)(O)O)[C@H]1OP(=O)(O)O [phytic acid] | – | sebum production-inhibiting action | lower

Reference: patent US20200003756A1, “METHOD FOR OBSERVING SEBACEOUS GLAND” (MANDOM CORPORATION, priority 2017, published 2020)
